A value given as a limit tells only on which side of the number the result lay.

Sequence of TNFα (P01375 77-233 limits assumed): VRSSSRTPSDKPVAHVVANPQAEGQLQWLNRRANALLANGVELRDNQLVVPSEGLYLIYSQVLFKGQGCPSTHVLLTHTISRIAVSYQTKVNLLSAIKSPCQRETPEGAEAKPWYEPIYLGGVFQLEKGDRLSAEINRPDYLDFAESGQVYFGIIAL

The first assay deals with TNFα (Homo sapiens, UniProt P01375). The assay is described as follows: TNF induced HEK-Blue assay (NF-kB-driven secreted alkaline phosphatase reporter). Type of assay: cell-based. The settings on record: TNF induced HEK-Blue assay IC50 value, TNFα 0.5 ng/mL, HEK-Blue-CD40L cells, 18 h. The method, boiled down:
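HEK-Blue-CD40L cells (NF-kB-driven SEAP reporter), 20,000/well, added after 30 min pre-incubation of compound (0.004–25 μM final) with TNFα 0.5 ng/mL final at 37 °C; 18 h incubation. SEAP read with QUANTI-Blue at 620 nm; IC50 from 4-parameter logistic fit, normalized to unstimulated and stimulated DMSO controls.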
By IC50 is commonly meant the midpoint of a concentration-inhibition curve. `C[C@@H](Nc1c(Cl)cnc2ccc(-c3cnc(C(C)(C)O)nc3)cc12)c1ccccc1` [Example 154, (R)-2-(5-(3-chloro-4-((1-phenylethyl)amino)quinolin-6-yl)pyrimidin-2-yl)propan-2-ol]: the IC50 was less than 1000 nM.

The assay is the same for the next values; noted with them: TNFα 0.5 ng/mL, HEK-Blue-CD40L cells, 18 h; read-out: TNF induced HEK-Blue assay IC50 value.
In the case of `CC(Nc1c(Cl)cnc2ccc(-c3ccc(C(C)(C)O)cc3)cc12)c1nc(C(N)=O)ccc1F` (racemic) [Example 27, 6-(1-((3-chloro-6-(4-(2-hydroxypropan-2-yl)phenyl)quinolin-4-yl)amino)ethyl)-5-fluoropicolinamide], the IC50 was less than 1000 nM.

Consider `C[C@@H](Nc1c(Cl)cnc2ccc(-c3cnc(N4CCN(Cc5nn[nH]n5)CC4)nc3)cc12)c1ccccc1F` [Example 237, (R)-6-(2-(4-((2H-tetrazol-5-yl)methyl)piperazin-1-yl)pyrimidin-5-yl)-3-chloro-N-(1-(2-fluorophenyl)ethyl)quinolin-4-amine], for which the IC50 was less than 1000 nM.

`C[C@@H](Nc1c(Cl)cnc2ccccc12)c1cc(-c2cccc(N)c2)ccc1F` [Example 526, (R)—N-(1-(3′-amino-4-fluoro-[1,1′-biphenyl]-3-yl)ethyl)-3-chloroquinolin-4-amine]: the IC50 lay within 1000 to 10000 nM.

`Cc1nc2ccc(-c3cnc(C(C)(C)O)nc3)cc2c(N[C@H](C)c2cccc(C#N)c2)c1Cl` [Example 386, (R)-3-(1-((3-chloro-6-(2-(2-hydroxypropan-2-yl)pyrimidin-5-yl)-2-methylquinolin-4-yl)amino)ethyl)benzonitrile]: the IC50 was less than 1000 nM.

For `CCc1ncc(-c2ccc3ncc(Cl)c(N[C@H](C)c4ccccc4F)c3c2)cn1` [Example 223, (R)-3-chloro-6-(2-ethylpyrimidin-5-yl)-N-(1-(2-fluorophenyl)ethyl) quinolin-4-amine], the IC50 fell in the range of 10000 to 25000 nM.

Turning to `CC(Nc1c(F)cnc2ccc(-c3cnc(C(C)(C)O)nc3)cc12)c1ccccc1F` (racemic) [Example 156, 2-(5-(3-fluoro-4-((1-(2-fluorophenyl)ethyl)amino)quinolin-6-yl)pyrimidin-2-yl) propan-2-ol], the IC50 was 1000 to 10000 nM.

For `C[C@@H](Nc1c(Cl)cnc2ccccc12)c1cc(-c2cncn2C)ccc1F` [Example 524, (R)-3-chloro-N-(1-(2-fluoro-5-(1-methyl-1H-imidazol-5-yl)phenyl)ethyl)quinolin-4-amine], the IC50 was less than 1000 nM.

Take `CC(Nc1c(Cl)cnc2ccc(-c3cnc(C(C)(C)O)nc3)cc12)c1ccccc1Cl` (racemic) [Example 153, 2-(5-(3-chloro-4-((1-(2-chlorophenyl)ethyl)amino)quinolin-6-yl)pyrimidin-2-yl)propan-2-ol]: the concentration for half-maximal inhibition (IC50) was less than 1000 nM.

On to `O=C(O)CC1CCN(c2ncc(-c3ccc4ncc(Cl)c(N[C@@H](c5ccccc5F)C(F)F)c4c3)cn2)CC1` [Example 78, (S)-2-(1-(5-(3-chloro-4-((2,2-difluoro-1-(2-fluorophenyl)ethyl)amino)quinolin-6-yl)pyrimidin-2-yl)piperidin-4-yl)acetic acid], for which the IC50 is less than 1000 nM.

Take `CC(CC(O)(c1ccccc1)c1ccccc1)Nc1c(Cl)cnc2ccc(-c3cnc(C(C)(C)O)nc3)cc12` (racemic) [Example 143, 3-((3-chloro-6-(2-(2-hydroxypropan-2-yl)pyrimidin-5-yl)quinolin-4-yl)amino)-1,1-diphenylbutan-1-ol]: the half-inhibitory concentration (IC50) was in the range of 10000 to 25000 nM.

For the compound `O=C(O)CN1CCN(c2ccc(-c3ccc4ncc(Cl)c(N[C@@H](c5ccccc5F)C(F)F)c4c3)cn2)CC1` [Example 15, (S)-2-(4-(5-(3-chloro-4-((2,2-difluoro-1-(2-fluorophenyl)ethyl)amino)quinolin-6-yl)pyridin-2-yl)piperazin-1-yl)acetic acid], the concentration for half-maximal inhibition (IC50) is less than 1000 nM.

For `Cc1ccc(C)c(Nc2c(Cl)c(COc3cccnc3)nc3ccc(-c4ccc(C#N)nc4)cc23)c1` [Example 41, 5-(3-chloro-4-((2,5-dimethylphenyl)amino)-2-((pyridin-3-yloxy)methyl)quinolin-6-yl)picolinonitrile], the half-inhibitory concentration (IC50) was in the range of 1000 to 10000 nM.

On to `CCC(Nc1c(Cl)cnc2ccc(-c3cnc(C(C)(C)O)nc3)cc12)c1nc(C(O)CO)ccc1F` (centres unmarked) [Example 127, 1-(6-(1-((3-chloro-6-(2-(2-hydroxypropan-2-yl)pyrimidin-5-yl)quinolin-4-yl)amino)propyl)-5-fluoropyridin-2-yl)ethane-1,2-diol], for which the IC50 was less than 1000 nM.

As to `CC(C)(O)c1ncc(-c2ccc3ncc(Cl)c(NC(C)(C)c4cccc(C(F)(F)F)c4)c3c2)cn1` [Example 182, 2-(5-(3-chloro-4-((2-(3-(trifluoromethyl)phenyl)propan-2-yl)amino)quinolin-6-yl)pyrimidin-2-yl)propan-2-ol], the IC50 lay within 10000 to 25000 nM.

As to `CC(C)(O)c1ncc(-c2cc3c(N[C@@H](c4ccccc4F)C(F)F)c(Cl)cnc3cc2F)cn1` [Example 269, (S)-2-(5-(3-chloro-4-((2,2-difluoro-1-(2-fluorophenyl)ethyl)amino)-7-fluoroquinolin-6-yl)pyrimidin-2-yl)propan-2-ol], the IC50 was less than 1000 nM.

As for `C[C@@H](Nc1c(Cl)cnc2ccccc12)c1cc(-c2cncc(C(=O)N3CCOCC3)c2)ccc1F` [Example 551, (R)-(5-(3-(1-((3-chloroquinolin-4-yl)amino)ethyl)-4-fluorophenyl)pyridin-3-yl)(morpholino)methanone], the half-inhibitory concentration (IC50) was in the range of 1000 to 10000 nM.

On to `O=C1CN(c2ncc(-c3ccc4ncc(Cl)c(N[C@@H](c5ccccc5F)C(F)F)c4c3)cn2)CCN1` [Example 79, (S)-4-(5-(3-chloro-4-((2,2-difluoro-1-(2-fluorophenyl)ethyl)amino)quinolin-6-yl)pyrimidin-2-yl)piperazin-2-one], for which the IC50 is less than 1000 nM.

`Cc1nc2ccccc2c(N[C@H](C)c2cc(-c3cncnc3)ccc2F)c1Cl` [Example 530, (R)-3-chloro-N-(1-(2-fluoro-5-(pyrimidin-5-yl)phenyl)ethyl)-2-methylquinolin-4-amine]: the IC50 was less than 1000 nM.

Consider `C[C@@H](Nc1c(Cl)cnc2cc(F)c(-c3cnc(C(C)(C)O)nc3)nc12)c1cc(C(=O)O)ccc1F` [Example 579, (R)-3-(1-((3-chloro-7-fluoro-6-(2-(2-hydroxypropan-2-yl)pyrimidin-5-yl)-1,5-naphthyridin-4-yl)amino)ethyl)-4-fluorobenzoic acid], for which the IC50 was 1000 to 10000 nM.

On to `C[C@@H](Nc1c(Cl)cnc2ccc(-c3ccc(C(N)CC(=O)O)cc3)cc12)c1ccccc1F` (mixture of isomers) [Example 115, 3-amino-3-(4-(3-chloro-4-(((R)-1-(2-fluorophenyl)ethyl)amino)quinolin-6-yl)phenyl)propanoic acid], for which the 50% inhibitory concentration (IC50) lay within 1000 to 10000 nM.

Regarding `CC(C)(O)c1ncc(-c2nc3c(N[C@@H](c4cc(C(O)CO)ccc4F)C(F)F)c(Cl)cnc3cc2F)cn1` (stereo partly drawn) [Example 492, 1-(3-((S)-1-((3-chloro-7-fluoro-6-(2-(2-hydroxypropan-2-yl)pyrimidin-5-yl)-1,5-naphthyridin-4-yl)amino)-2,2-difluoroethyl)-4-fluorophenyl)ethane-1,2-diol], the half-inhibitory concentration (IC50) is less than 1000 nM.

With `C[C@@H](Nc1c(Cl)cnc2ccccc12)c1cc(-c2cncs2)ccc1F` [Example 542, (R)-3-chloro-N-(1-(2-fluoro-5-(thiazol-5-yl)phenyl)ethyl)quinolin-4-amine], the IC50 is less than 1000 nM.

These data come from US10865191B2, “Heterocyclic compounds useful as modulators of TNF alpha” (BRISTOL-MYERS SQUIBB COMPANY, priority 2015, dated 2020).
